In patent US11466028B2, “Fused 1,4-oxazepines as BET protein degraders” (THE REGENTS OF THE UNIVERSITY OF MICHIGAN, priority 2016, dated 2022):

Experiments:
MV4;11 xenograph = MV4;11 xenograph model; format: in vivo
Method: (§1) Representative Compounds of the Disclosure were tested in the RS4;11 and other xenograph models using similar techniques. […] No. 22 in the MDA-MB-231 TNBC model.

WHIM24 breast cancer PDX = WHIM24 breast cancer PDX model; format: in vivo; settings: FIG. 10
Method: as §1

MOLM-13 = assay: CellTiter-Glo cell growth inhibition, MOLM-13; format: cell-based; settings: Homo sapiens, MOLM-13, 96 h, 4 days, Table 4, read-out: MOLM-13 IC50
Method: (§2) Cell growth inhibitory activity of representative Compounds of the Disclosure was determined using the CellTiter-Glo® Luminescent Cell Viability Assay. Cells were seeded in 384-well white opaque cell culture plates at a density of 2,000 cells/well with serially diluted compounds and incubated at 37° C. in an atmosphere of 95% air and 5% CO2 for 4 days. Cell viability was determined using the CellTiter-Glo® Luminescent Cell Viability Assay Kit (Promega, Madison, Wis.) according to the manufacture's instruction. Briefly, a volume of CellTiter-Glo® Reagent equal to the volume of cell culture medium was added to each well, and then the plates were incubated at room temperature for 10-20 minutes. The luminescent signal was measured using a Tecan Infinite M1000 multimode microplate reader (Tecan, Morrisville, N.C.). The half maximal inhibitory concentration (IC50) was calculated using the GraphPad Prism 5 software (GraphPad Software, La Jolla, Calif.).
(§3) Cpd. Nos. 18 and 19 were tested in various leukemia cell lines using the CellTiter-Glo® Luminescent Cell Viability Assay as described in Example 35.

RS4;11 xenograph tumors = assay: RS4;11 xenograft model; format: in vivo, SCID mice; settings: for tumor regression in RS4;11 xenograph tumors: SCID mice
Method: Cpd. Nos. 7 and 11 were dissolved in 10% PCP [10% PEG400 (Sigma), 3% Cremophor (Sigma), and 87% PBS (Gibco)]. The pH of the drug solutions were checked before use and adjusted with 0.5N NaOH to be between pH 6.5 and 8.0 for IV (intravenous) administration.
RS4;11 cells were maintained at 37° C., 95% air, 5% carbon dioxide in Improved MEM (Richter's Mod.) supplemented with 10% Fetal Bovine Serum, 100 units/ml of penicillin and 100 units/ml of streptomycin (GIBCO™, Invitrogen Corp.) and passaged twice weekly.
Tumor cells for xenografts were harvested with Trypsin (0.05%)-EDTA (0.53 mM) (GIBCO™, Invitrogen Corp.), growth medium added and cells placed on ice. Cells were washed once with 1×PBS (GIBCO™, Invitrogen Corp.) and re-suspended in PBS. After washing in PBS, cells were re-suspended in an ice cold mixture of 1:1 PBS and Matrigel (BD Biosciences, Invitrogen Corp.) for a final Matrigel protein concentration of 5 mg/ml. Cells at 5×10^6 cells in 0.1 ml were injected subcutaneously (s.c.) into the flank region of each mouse using a 25 gauge needle. All tumors were inoculated into SCID mice (strain:236) C.B-17 SCID, Charles River.
The size of tumors growing in the mice was measured in two dimensions using calipers. Tumor volume (mm^3)═(A×B^2)/2 where A and B are the tumor length and width (in mm), respectively. During treatment, tumor volume and body weight were measured three times a week. After the treatment was stopped, tumor volume and body weight was measured at least once a week.
Tumors were not allowed to exceed 10% of the animals total body weight. If an animal had two or more tumors the total weight of all tumors were not allowed to exceed 10% of the animal's total body weight. At the end of the experimental period or when tumor size approached 10% of the total body weight, the animal was euthanized.
Before treatment began, tumors were allowed to grow to 100-200 mm^3 in volume, at which point the blood vessel supplies to the tumor should have been well established. Mice with tumors within acceptable size range were randomized into treatment groups of seven mice. Cpd. Nos. 7 and 11 were given i.v. at 10 mg/kg at days 1,3, and 5 per week for two weeks. The Control group received vehicle alone. Cpd. Nos. 16, 18, 22 and 48 were given i.v. at 5 mg/kg at days 1, 3, and 5 per week for two weeks. The Control group received vehicle alone.
as §1

RS4;11 = assay: CellTiter-Glo cell growth inhibition, RS4;11; format: cell-based; settings: Homo sapiens, RS4-11, 96 h, 4 days, Table 4, read-out: RS-4, 11 IC50
Method: as §2, §3

MDA-MB-231 [1] = assay: CellTiter-Glo cell growth inhibition, MDA-MB-231; format: cell-based; settings: Homo sapiens, MDA-MB-231, 96 h, 4 days, Table 4
Method: as §2

MDA-MB-468 TNBC = MDA-MB-468 TNBC model; format: in vivo; settings: FIG. 11
Method: as §1

MDA-MB-231 TNBC = MDA-MB-231 TNBC model; format: in vivo; settings: FIG. 12
Method: as §1

MDA-MB-474 = assay: WST-8 cell growth inhibition assay, MDA-MB-474; format: cell-based; settings: WST-8, Table 6
Method: (§4) Cpd. Nos. 7 and 18 were tested in various triple-negative breast cancer cell lines using the WST-8 cell growth assay.

MDA-MB-157 = assay: WST-8 cell growth inhibition assay, MDA-MB-157; format: cell-based; settings: Homo sapiens, WST-8, Table 6
Method: as §4

MDA-MB-436 = assay: WST-8 cell growth inhibition assay, MDA-MB-436; format: cell-based; settings: Homo sapiens, WST-8, Table 6
Method: as §4

MDA-MB-231 [2] = assay: WST-8 cell growth inhibition assay, MDA-MB-231; format: cell-based; settings: Homo sapiens, WST-8, Table 6
Method: as §4

MDA-MB-453 = assay: WST-8 cell growth inhibition assay, MDA-MB-453; format: cell-based; settings: Homo sapiens, WST-8, Table 6
Method: as §4

HBL100 = assay: WST-8 cell growth inhibition assay, HBL100; format: cell-based; settings: Homo sapiens, HBL-100; WST-8, Table 6
Method: as §4

MDA-MB-468 = assay: WST-8 cell growth inhibition assay, MDA-MB-468; format: cell-based; settings: Homo sapiens, WST-8, Table 6
Method: as §4

| IC50 (MOLM-13) [nM] | IC50 (RS4;11) [nM] | IC50 (MDA-MB-231 [1]) [nM] | IC50 (MDA-MB-474) [nM] | IC50 (MDA-MB-157) [nM] | IC50 (MDA-MB-436) [nM] | IC50 (MDA-MB-231 [2]) [nM] | IC50 (MDA-MB-453) [nM] | IC50 (MDA-MB-468) [nM] | SMILES | tumor regression in the MV4;11 xenograph model (MV4;11 xenograph; FIG. 8) | tumor regression in the MV4;11 xenograph model (MV4;11 xenograph; FIG. 9) | tumor regression in the WHIM24 breast cancer PDX model (WHIM24 breast cancer PDX) | tumor regression in RS4;11 xenograph tumors (RS4;11 xenograph tumors; i.v. 5 mg/kg at days 1, 3, 5 per week for two weeks, FIG. 4) | tumor regression in the RS4;11 xenograph model (RS4;11 xenograph tumors; every other day dosing schedule, FIG. 6) | tumor regression in the RS4;11 xenograph model (RS4;11 xenograph tumors; single dose or weekly dosing schedule, FIG. 7) | tumor regression in the MDA-MB-468 TNBC model (MDA-MB-468 TNBC) | tumor regression in the MDA-MB-231 TNBC model (MDA-MB-231 TNBC) | tumor regression in RS4;11 xenograph tumors (RS4;11 xenograph tumors; i.v. 10 mg/kg at days 1, 3, 5 per week for two weeks, FIG. 3) | IC50 (HBL100) [nM] |
| --- | --- | --- | --- | --- | --- | --- | --- | --- | --- | --- | --- | --- | --- | --- | --- | --- | --- | --- | --- |
| 0.85 | 0.11 | < 0.015 | – | – | – | – | – | – | Cc1nnc2n1-c1sc(C#Cc3cnn(CCCC#Cc4cccc5c4CN(C4CCC(=O)NC4=O)C5=O)c3)c(Cc3ccccc3)c1COC2 (stereo not shown) [Cpd. No. 22, 3-(4-(5-(4-((3-benzyl-9-methyl-4H,6H-thieno[2,3-e][1,2,4]triazolo[3,4-c][1,4]oxazepin-2-yl)ethynyl)-1H-pyrazol-1-yl)pent-1-yn-1-yl)-1-oxoisoindolin-2-yl)piperidine-2,6-dione] | induces tumor regression | induce tumor regression | induces tumor regression | induce tumor regression | induces tumor regression | induces tumor regression | induces tumor regression | induces tumor regression | – | – |
| 0.7 | 0.03 | 0.8 | 1.09 ± 0.06 | 0.29 ± 0.02 | 2.24 ± 0.3 | 1.2 ± 0.13 | 1.02 ± 0.03 | 2.46 ± 0.07 | Cc1nnc2n1-c1sc(C#Cc3cnn(CCCCNc4cccc5c4C(=O)N(C4CCC(=O)NC4=O)C5=O)c3)c(Cc3ccccc3)c1CO[C@H]2C (stereo partly drawn) [Cpd. No. 7, 4-((4-(4-(((S)-3-benzyl-6,9-dimethyl-4H,6H-thieno[2,3-e][1,2,4]triazolo[3,4-c][1,4]oxazepin-2-yl)ethynyl)-1H-pyrazol-1-yl)butyl)amino)-2-(2,6-dioxopiperidin-3-yl)isoindoline-1,3-dione] | – | – | – | – | – | – | – | – | induce tumor regression | 1.7 ± 0.15 |
